Test results from US9981972B2, “N-hydroxy bicyclic hydantoin carbamates as tools for identification of serine hydrolase targets” (ABIDE THERAPEUTICS, INC., priority 2014, dated 2018).

What was measured:
Type in all cases: biochemical
FAAH = target: T1, FAAH (Mus musculus, UniProt O08914); test: Gel-based competitive ABPP in vitro, mouse brain membrane proteome; conditions: 10 μM, mouse brain (mem) proteome
T1 construct: from tissue; host or cells: mouse brain, membrane fraction
T1 sequence (O08914 1-579): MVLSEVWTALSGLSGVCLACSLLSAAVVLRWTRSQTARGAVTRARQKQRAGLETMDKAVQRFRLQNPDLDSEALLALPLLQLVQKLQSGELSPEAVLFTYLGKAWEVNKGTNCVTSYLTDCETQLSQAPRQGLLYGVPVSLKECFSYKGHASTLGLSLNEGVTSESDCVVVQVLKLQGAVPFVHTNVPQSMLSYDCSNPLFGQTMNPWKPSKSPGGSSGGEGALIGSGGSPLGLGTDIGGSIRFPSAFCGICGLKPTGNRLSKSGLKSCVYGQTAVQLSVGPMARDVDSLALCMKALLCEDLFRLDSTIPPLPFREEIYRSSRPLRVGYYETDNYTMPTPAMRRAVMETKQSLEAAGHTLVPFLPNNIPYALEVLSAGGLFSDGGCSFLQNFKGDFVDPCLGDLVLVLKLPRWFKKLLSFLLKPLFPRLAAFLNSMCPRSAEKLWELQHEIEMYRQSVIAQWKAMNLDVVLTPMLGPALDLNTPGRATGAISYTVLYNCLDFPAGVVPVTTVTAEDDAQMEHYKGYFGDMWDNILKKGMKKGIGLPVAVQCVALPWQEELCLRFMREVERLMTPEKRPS
Description: (§1) Assay Overview: The purpose of this assay was to determine whether test compounds can inhibit LYPLA1 and LYPLA2 in a complex proteomic lysate and to assess anti-target inhibition using a competitive activity-based proteomic profiling (ABPP) assay. In this assay, a complex proteome endogenously expressing LYPLA1/2 was incubated with test compound followed by reaction with a rhodamine-conjugated fluorophosphonate (FP-Rh) serine-hydrolase specific activity-based probe. The reaction products were separated by SDS-PAGE and visualized in-gel using a flatbed fluorescence scanner. The percentage activity remaining was determined by measuring the integrated optical density of the bands. […] Percent inhibition was calculated relative to a DMSO (no compound) control.
(§2) Protocol Summary: Mouse brain membrane proteome (50 μL reaction volume, 1 mg/mL in DPBS) was treated with 0.1-100 μM test compound (1 μL of a 50× stock in DMSO) for 30 minutes at 37° C. FP-Rh (1 μL of 50× stock in DMSO, Thermo #88318) was added to a final concentration of 2 μM. The reactions were incubated for 30 minutes at 25° C., quenched with 16 μL 4×SDS-PAGE loading buffer (reducing), separated by SDS-PAGE and visualized by in-gel fluorescent scanning. The percentage activity remaining was determined by measuring the integrated optical density of the bands relative to a DMSO-only (no compound) control. Assay Cutoff: Compounds with ≥50% inhibition of targets at 1 μM test compound concentration were considered active.
(§3) Assay Overview: The purpose of this assay was to determine IC50 values of powder samples of test compounds for enzyme of interest activity, and anti-targets in a complex proteomic lysate using a gel-based competitive ABPP assay. In this assay, a complex proteome was incubated with test compound followed by reaction with FP-Rh and SDS-PAGE analysis as described above.
(§4) Protocol Summary: Soluble HeLa cell proteome (50 μL reaction volume, 1 mg/mL in DPBS) or mouse brain membrane proteome (50 μL reaction volume, 1 mg/mL in DPBS) was treated with varying concentrations of test compound (1 μL of a 50× stock in DMSO) for 30 minutes at 37° C. FP-Rh (1 μL of 50× stock in DMSO) was added to a final concentration of 2 μM. The reaction was incubated for 30 minutes at 25° C., quenched with 16 μL 4×SDS-PAGE loading buffer (reducing), separated by SDS-PAGE and visualized by in-gel fluorescent scanning. The percentage activity remaining was determined by measuring the integrated optical density of the enzymes of interest, and anti-target bands relative to a DMSO-only (no compound) control. IC50 values were determined from dose-response curves from three replicates at each inhibitor concentration: 1, 10, 100, 1000, 10000 nM and 0.01, 0.1, 1, 10, 100, 1000, 10000, 50000, and 100000 nM.

ABHD6 = target: T2, ABHD6 (Mus musculus, UniProt Q8R2Y0); test: as above; conditions: for IC50: mouse ABHD6, in vitro, read-out: mABHD6 in vitro potency (IC50)
T2 construct: from tissue; host or cells: mouse brain, membrane fraction
T2 sequence (Q8R2Y0 1-336): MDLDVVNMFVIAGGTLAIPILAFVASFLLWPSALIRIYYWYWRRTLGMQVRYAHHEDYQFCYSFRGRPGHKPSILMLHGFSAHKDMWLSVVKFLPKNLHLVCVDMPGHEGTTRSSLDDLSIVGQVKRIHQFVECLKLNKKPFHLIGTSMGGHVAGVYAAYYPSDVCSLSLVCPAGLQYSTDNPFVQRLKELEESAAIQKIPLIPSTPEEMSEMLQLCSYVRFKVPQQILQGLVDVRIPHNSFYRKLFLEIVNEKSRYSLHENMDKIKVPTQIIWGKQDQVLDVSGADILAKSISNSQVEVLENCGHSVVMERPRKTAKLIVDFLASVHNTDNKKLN
Description: as §1, §2, §3, §4

human LYPLA1 = target: T3, human LYPLA1 (Homo sapiens, UniProt O75608); test: IC50 by gel-based competitive ABPP in vitro, soluble HeLa cell proteome; conditions: first value of the cell; read-out: hLYPLA1/2 in vitro potency (IC50): hLYPLA1
T3 construct: endogenous human LYPLA1/2 in a HeLa soluble proteome; endogenous in cells; host or cells: HeLa (soluble proteome in vitro; cultured cells in situ)
Description: as §3, §4

human LYPLA2 = target: T4, human LYPLA2 (Homo sapiens, UniProt O95372); test: as above; conditions: second value of the cell; read-out: hLYPLA1/2 in vitro potency (IC50): hLYPLA2
T4 construct: endogenous human LYPLA1/2 in a HeLa soluble proteome; endogenous in cells; host or cells: HeLa (soluble proteome in vitro; cultured cells in situ)
Description: as §3, §4

T3 sequence (O75608 whole entry): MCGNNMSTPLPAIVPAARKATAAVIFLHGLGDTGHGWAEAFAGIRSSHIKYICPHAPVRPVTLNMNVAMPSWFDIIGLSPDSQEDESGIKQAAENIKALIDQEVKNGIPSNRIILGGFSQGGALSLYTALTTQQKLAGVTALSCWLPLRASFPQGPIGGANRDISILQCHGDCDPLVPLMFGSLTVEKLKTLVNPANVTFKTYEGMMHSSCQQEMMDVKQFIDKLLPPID
T4 sequence (O95372 whole entry): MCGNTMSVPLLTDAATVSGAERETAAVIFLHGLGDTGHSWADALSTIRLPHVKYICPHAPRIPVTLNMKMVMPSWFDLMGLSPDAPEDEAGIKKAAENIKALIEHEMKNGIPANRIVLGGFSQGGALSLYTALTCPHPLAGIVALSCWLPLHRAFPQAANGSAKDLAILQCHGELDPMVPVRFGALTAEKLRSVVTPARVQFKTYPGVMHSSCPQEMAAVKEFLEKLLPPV

**Q.** How did the “FAAH in vitro enzyme activity, % @ 10 μM” value (FAAH) turn out when `COc1ccc(N2CCN(C(=O)ON3C(=O)C4CN(CC5CCN(Cc6ccccc6)CC5)CCN4C3=O)CC2)cc1` (centres unmarked) [Compound 52, 7-((1-benzylpiperidin-4-yl)methyl)-1,3-dioxo-hexahydroimidazo[1,5-a]pyrazin-2(3H)-yl 4-(4-methoxyphenyl)piperazine-1-carboxylate] was run?
**A.** 0% @

**Q.** What about the “ABHD6 in vitro enzyme activity, % @ 1 μM” value (ABHD6; mouse brain (mem) proteome) of the same molecule?
**A.** 100% @

**Q.** For `O=C(ON1C(=O)[C@@H]2CN(C(=O)N3CCOCC3)CCN2C1=O)N1CCC(CCc2ccc(Cl)cc2)CC1` [Compound 50, (S)-7-(morpholine-4-carbonyl)-1,3-dioxohexahydroimidazo[1,5-a]pyrazin-2(3H)-yl 4-(4-chloro-phenethyl)piperidine-1-carboxylate], which “FAAH in vitro enzyme activity, % @ 10 μM” value (FAAH) is on record?
**A.** 0% @

**Q.** And the “ABHD6 in vitro enzyme activity, % @ 1 μM” value (ABHD6; mouse brain (mem) proteome)?
**A.** 100% @

**Q.** And the IC50 (ABHD6)?
**A.** 2.2 nM

**Q.** For `C#Cc1ccc(CCC2CCN(C(=O)ON3C(=O)[C@H]4CN(C(=O)N5CCOCC5)CCN4C3=O)CC2)cc1` [Compound 49, (R)-7-(morpholine-4-carbonyl)-1,3-dioxo-hexahydroimidazo[1,5-a]pyrazin-2(3H)-yl 4-(4-ethynylphenethyl)piperidine-1-carboxylate], which IC50 (human LYPLA1) is on record?
**A.** 842 nM

**Q.** And the IC50 (human LYPLA2)?
**A.** 1430 nM

**Q.** What about the “FAAH in vitro enzyme activity, % @ 10 μM” value (FAAH) of the same molecule?
**A.** 50% @

**Q.** And the “ABHD6 in vitro enzyme activity, % @ 1 μM” value (ABHD6; mouse brain (mem) proteome)?
**A.** 100% @

**Q.** Which “FAAH in vitro enzyme activity, % @ 10 μM” value (FAAH) does the source give for `O=C(ON1C(=O)[C@H]2CN(C(=O)N3CCOCC3)CCN2C1=O)N1CCC(CCc2ccc(Cl)cc2)CC1` [Compound 51, (R)-7-(morpholine-4-carbonyl)-1,3-dioxohexahydroimidazo[1,5-a]pyrazin-2(3H)-yl 4-(4-chloro-phenethyl)piperidine-1-carboxylate] here?
**A.** 0% @

**Q.** What about the “ABHD6 in vitro enzyme activity, % @ 1 μM” value (ABHD6; mouse brain (mem) proteome) of the same molecule?
**A.** 100% @

**Q.** What about the IC50 (ABHD6) of the same molecule?
**A.** 2.5 nM

**Q.** With `C#Cc1ccc(CCC2CCN(C(=O)ON3C(=O)[C@@H]4CN(C(=O)N5CCOCC5)CCN4C3=O)CC2)cc1` [Compound 48, (S)-7-(morpholine-4-carbonyl)-1,3-dioxo-hexahydroimidazo[1,5-a]pyrazin-2(3H)-yl 4-(4-ethynylphenethyl)piperidine-1-carboxylate] as the molecule, how does the IC50 (human LYPLA1) read?
**A.** 1750 nM

**Q.** And the IC50 (human LYPLA2)?
**A.** 1830 nM

**Q.** What about the “FAAH in vitro enzyme activity, % @ 10 μM” value (FAAH) of the same molecule?
**A.** 75% @

**Q.** And the “ABHD6 in vitro enzyme activity, % @ 1 μM” value (ABHD6; mouse brain (mem) proteome)?
**A.** 100% @

**Q.** For `C#CCOc1ccc(N2CCN(C(=O)ON3C(=O)[C@@H]4CN(CC5CCN(Cc6ccccc6)CC5)CCN4C3=O)CC2)cc1` [Compound 46, (S)-7-((1-benzylpiperidin-4-yl)methyl)-1,3-dioxo-hexahydroimidazo[1,5-a]pyrazin-2(3H)-yl 4-(4-(prop-2-ynyloxy)phenyl)piperazine-1-carboxylate], which “FAAH in vitro enzyme activity, % @ 10 μM” value (FAAH) is on record?
**A.** 0% @

**Q.** What about the “ABHD6 in vitro enzyme activity, % @ 1 μM” value (ABHD6; mouse brain (mem) proteome) of the same molecule?
**A.** 100% @

**Q.** `C#Cc1ccc(CCC2CCN(C(=O)ON3C(=O)C4CN(C(=O)N5CCOCC5)CCN4C3=O)CC2)cc1` (centres unmarked) [Compound 53, 7-(morpholine-4-carbonyl)-1,3-dioxo-hexahydroimidazo[1,5-a]pyrazin-2(3H)-yl 4-(4-ethynylphenethyl)piperidine-1-carboxylate] was tested. Which “FAAH in vitro enzyme activity, % @ 10 μM” value (FAAH) did it give?
**A.** 50% @

**Q.** And the “ABHD6 in vitro enzyme activity, % @ 1 μM” value (ABHD6; mouse brain (mem) proteome)?
**A.** 100% @

**Q.** With `COc1ccc(N2CCN(C(=O)ON3C(=O)[C@H]4CN(CC5CCN(Cc6ccccc6)CC5)CCN4C3=O)CC2)cc1` [Compound 43, (R)-7-((1-benzylpiperidin-4-yl)methyl)-1,3-dioxo-hexahydroimidazo[1,5-a]pyrazin-2(3H)-yl 4-(4-methoxyphenyl)piperazine-1-carboxylate] as the molecule, how does the “FAAH in vitro enzyme activity, % @ 10 μM” value (FAAH) read?
**A.** 0% @

**Q.** And the “ABHD6 in vitro enzyme activity, % @ 1 μM” value (ABHD6; mouse brain (mem) proteome)?
**A.** 100% @

**Q.** For `C#CCOc1ccc(N2CCN(C(=O)ON3C(=O)[C@H]4CN(Cc5ccc(Oc6ccccc6)cc5)CCN4C3=O)CC2)cc1` [Compound 45, (R)-1,3-dioxo-7-(4-phenoxybenzyl)-hexahydroimidazo[1,5-a]pyrazin-2(3H)-yl 4-(4-(prop-2-ynyloxy)phenyl)piperazine-1-carboxylate], which “FAAH in vitro enzyme activity, % @ 10 μM” value (FAAH) is on record?
**A.** 0% @

**Q.** And the “ABHD6 in vitro enzyme activity, % @ 1 μM” value (ABHD6; mouse brain (mem) proteome)?
**A.** 100% @

**Q.** Which results are given for `C#CCOc1ccc(N2CCN(C(=O)ON3C(=O)[C@@H]4CN(Cc5ccc(Oc6ccccc6)cc5)CCN4C3=O)CC2)cc1` [Compound 44, (S)-1,3-dioxo-7-(4-phenoxybenzyl)-hexahydroimidazo[1,5-a]pyrazin-2(3H)-yl 4-(4-(prop-2-ynyloxy)phenyl)piperazine-1-carboxylate]?
**A.** FAAH in vitro enzyme activity, % @ 10 μM (FAAH): 0% @; ABHD6 in vitro enzyme activity, % @ 1 μM (ABHD6; mouse brain (mem) proteome): 100% @

**Q.** `COc1ccc(N2CCN(C(=O)ON3C(=O)[C@@H]4CN(CC5CCN(Cc6ccccc6)CC5)CCN4C3=O)CC2)cc1` [Compound 42, (S)-7-((1-benzylpiperidin-4-yl)methyl)-1,3-dioxo-hexahydroimidazo[1,5-a]pyrazin-2(3H)-yl 4-(4-methoxyphenyl)piperazine-1-carboxylate] was tested. Which “FAAH in vitro enzyme activity, % @ 10 μM” value (FAAH) did it give?
**A.** 0% @

**Q.** And the “ABHD6 in vitro enzyme activity, % @ 1 μM” value (ABHD6; mouse brain (mem) proteome)?
**A.** 100% @

**Q.** Which results are given for `C#CCOc1ccc(N2CCN(C(=O)ON3C(=O)[C@H]4CN(CC5CCN(Cc6ccccc6)CC5)CCN4C3=O)CC2)cc1` [Compound 47, (R)-7-((1-benzylpiperidin-4-yl)methyl)-1,3-dioxo-hexahydroimidazo[1,5-a]pyrazin-2(3H)-yl 4-(4-(prop-2-ynyloxy)phenyl)piperazine-1-carboxylate]?
**A.** FAAH in vitro enzyme activity, % @ 10 μM (FAAH): 0% @; ABHD6 in vitro enzyme activity, % @ 1 μM (ABHD6; mouse brain (mem) proteome): 100% @

**Q.** What does the source list for `O=C(ON1C(=O)[C@@H]2CN(Cc3ccc(Br)cc3)CCN2C1=O)N1CCC(CCc2ccc(Cl)cc2)CC1` [Compound 40, (S)-7-(4-bromobenzyl)-1,3-dioxohexahydroimidazo[1,5-a]pyrazin-2(3H)-yl4-(4-chlorophenethyl)piperidine-1-carboxylate]?
**A.** FAAH in vitro enzyme activity, % @ 10 μM (FAAH): 50% @; ABHD6 in vitro enzyme activity, % @ 1 μM (ABHD6; mouse brain (mem) proteome): 100% @

**Q.** For `O=C(ON1C(=O)C2CN(Cc3ccc(Oc4ccccc4)cc3)CCN2C1=O)N1CCC(c2ccccc2)CC1` (centres unmarked) [Compound 38, 1,3-dioxo-7-(4-phenoxybenzyl)hexahydroimidazo[1,5-a]pyrazin-2(3H)-yl 4-phenylpiperidine-1-carboxylate], which “ABHD6 in vitro enzyme activity, % @ 20 μM” value (ABHD6; 20 μM, mouse brain (mem) proteome) is on record?
**A.** 100% @

**Q.** Which results are given for `O=C(ON1C(=O)[C@@H]2CN(C(=O)N3CCOCC3)CCN2C1=O)N1CCN(CCc2ccc(Cl)cc2)CC1` [Compound 41, (S)-7-(morpholine-4-carbonyl)-1,3-dioxo-hexahydroimidazo[1,5-a]pyrazin-2(3H)-yl 4-(4-chlorophenethyl)piperazine-1-carboxylate]?
**A.** FAAH in vitro enzyme activity, % @ 10 μM (FAAH): 100% @; ABHD6 in vitro enzyme activity, % @ 1 μM (ABHD6; mouse brain (mem) proteome): 100% @
